Biological target: Recombinant human ULK1 (1-649) (Homo sapiens (Human), UniProt O75385)
Test: ULK1 ADP Glo kinase activity assay (MBP substrate)
Conditions: 25° C., 40 minutes, read-out: ULK1 biochemical IC50
In short: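 GST-tagged ULK1 (1-649) from Sf9 cells phosphorylated MBP, with ATP, for 40 min at 25 °C across a 12-point series from 10 uM. ADP formed was quantified by ADP-Glo luminescence against DMSO controls. IC50 came from a four-parameter variable-slope fit of log concentration.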

Chain of Recombinant human ULK1 (1-649) (O75385 1-649): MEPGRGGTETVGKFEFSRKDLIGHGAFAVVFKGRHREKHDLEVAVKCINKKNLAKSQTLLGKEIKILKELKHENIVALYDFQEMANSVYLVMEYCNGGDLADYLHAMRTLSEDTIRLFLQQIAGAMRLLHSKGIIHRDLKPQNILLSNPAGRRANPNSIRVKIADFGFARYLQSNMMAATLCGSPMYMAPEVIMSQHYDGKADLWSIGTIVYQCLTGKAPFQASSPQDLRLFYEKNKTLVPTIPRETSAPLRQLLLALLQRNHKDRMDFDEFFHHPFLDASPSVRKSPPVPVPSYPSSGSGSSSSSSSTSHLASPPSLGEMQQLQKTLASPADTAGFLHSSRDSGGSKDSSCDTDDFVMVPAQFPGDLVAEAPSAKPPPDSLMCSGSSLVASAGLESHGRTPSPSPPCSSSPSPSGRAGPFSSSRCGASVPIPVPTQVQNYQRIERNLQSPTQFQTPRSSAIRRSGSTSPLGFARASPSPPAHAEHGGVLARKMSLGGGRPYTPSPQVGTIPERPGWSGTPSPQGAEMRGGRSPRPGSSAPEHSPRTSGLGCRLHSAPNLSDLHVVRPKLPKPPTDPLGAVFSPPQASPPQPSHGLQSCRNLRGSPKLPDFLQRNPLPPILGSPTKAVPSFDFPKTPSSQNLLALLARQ

Structure (SMILES)	IC50 [nM]
COCCN1CCCc2sc(-c3nc(Nc4cc5c(cc4Cl)CNCC5)ncc3C(F)(F)F)cc2C1=O [Example 41, 2-(2-((7-chloro-1,2,3,4-tetrahydroisoquinolin-6-yl)amino)-5-(trifluoromethyl)pyrimidin-4-yl)-5-(2-methoxyethyl)-5,6,7,8-tetrahydro-4H-thieno[3,2-c]azepin-4-one]	10 to 50
COCCOc1sc(-c2nc(Nc3cc4c(cc3Cl)CNCC4)ncc2C(F)(F)F)cc1C(N)=O [Example 55, 5-(2-((7-chloro-1,2,3,4-tetrahydroisoquinolin-6-yl)amino)-5-(trifluoromethyl)pyrimidin-4-yl)-2-(2-methoxyethoxy)thiophene-3-carboxamide]	≤ 10
Cc1nn(C2CCN(C)CC2)cc1Nc1ncc(C(F)(F)F)c(-c2cc(S(C)(=O)=O)cs2)n1 [Example 119, N-[3-methyl-1-(1-methyl-4-piperidyl)pyrazol-4-yl]-4-(4-methylsulfonyl-2-thienyl)-5-(trifluoromethyl)pyrimidin-2-amine]	≤ 10
CN1Cc2cc(Nc3ncc(C(F)(F)F)c(-c4cc(S(C)(=O)=O)cs4)n3)c(C3CC3)cc2C1 [Example 88, 6-cyclopropyl-N-[4-(4-methanesulfonylthiophen-2-yl)-5-(trifluoromethyl)pyrimidin-2-yl]-2-methyl-2,3-dihydro-1H-isoindol-5-amine]	≤ 10
CN1CCN(c2ccc(Nc3ncc(C(F)(F)F)c(-c4cc(S(C)(=O)=O)cs4)n3)cc2)CC1 [Example 103, N-(4-(4-methylpiperazin-1-yl)phenyl)-4-(4-(methylsulfonyl)thiophen-2-yl)-5-(trifluoromethyl)pyrimidin-2-amine]	≤ 10
CS(=O)(=O)c1cc(-c2nc(Nc3cc4c(cc3Cl)CNCC4)ncc2C(F)(F)F)sc1C(=O)N1CCOCC1 [Example 58, (5-(2-((7-chloro-1,2,3,4-tetrahydroisoquinolin-6-yl)amino)-5-(trifluoromethyl)pyrimidin-4-yl)-3-(methylsulfonyl)thiophen-2-yl)(morpholino)methanone]	100 to 500
O=S1(=O)CCNCc2sc(-c3nc(Nc4cc5c(cc4Cl)CNCC5)ncc3C(F)(F)F)cc21 [Example 64, 7-(2-((7-chloro-1,2,3,4-tetrahydroisoquinolin-6-yl)amino)-5-(trifluoromethyl)pyrimidin-4-yl)-2,3,4,5-tetrahydrothieno[2,3-f][1,4]thiazepine 1,1-dioxide]	≤ 10
CS(=O)(=O)c1csc(-c2nc(Nc3cc4c(cc3F)CN(C3CC3)C4)ncc2C(F)(F)F)c1 [Example 114, 2-cyclopropyl-6-fluoro-N-[4-(4-methylsulfonyl-2-thienyl)-5-(trifluoromethyl)pyrimidin-2-yl]isoindolin-5-amine]	10 to 50
O=S1(=O)CCCOc2sc(-c3nc(Nc4cc5c(cc4Cl)CNCC5)ncc3C(F)(F)F)cc21 [Example 60, 2-(2-((7-chloro-1,2,3,4-tetrahydroisoquinolin-6-yl)amino)-5-(trifluoromethyl)pyrimidin-4-yl)-6,7-dihydro-5H-thieno[2,3-b][1,4]oxathiepine 4,4-dioxide]	≤ 10
O=C1NCCc2sc(-c3nc(Nc4cc5c(cc4C4CC4)CNCC5)ncc3C(F)(F)F)cc21 [Example 29, 2-(2-((7-Cyclopropyl-1,2,3,4-tetrahydroisoquinolin-6-yl)amino)-5-(trifluoromethyl)pyrimidin-4-yl)-6,7-dihydrothieno[3,2-c]pyridin-4(5H)-one]	≤ 10
CS(=O)(=O)c1csc(-c2nc(Nc3cc4c(cc3Cl)CNCC4)ncc2C(F)(F)F)c1 [Example 32, 7-Chloro-N-(4-(4-(methylsulfonyl)thiophen-2-yl)-5-(trifluoromethyl)pyrimidin-2-yl)-1,2,3,4-tetrahydroisoquinolin-6-amine]	≤ 10
COCCOc1sc(-c2nc(Nc3cc4c(cc3Cl)CN(C)CC4)ncc2C(F)(F)F)cc1S(C)(=O)=O [Example 57, 7-chloro-N-(4-(5-(2-methoxyethoxy)-4-(methylsulfonyl)thiophen-2-yl)-5-(trifluoromethyl)pyrimidin-2-yl)-2-methyl-1,2,3,4-tetrahydroisoquinolin-6-amine]	≤ 10
CN1Cc2cc(Cl)c(Nc3ncc(C(F)(F)F)c(-c4cc(C(N)=O)cs4)n3)cc2C1 [Example 17, 5-(2-((6-Chloro-2-methylisoindolin-5-yl)amino)-5-(trifluoromethyl)pyrimidin-4-yl)thiophene-3-carboxamide]	≤ 10
CS(=O)(=O)c1csc(-c2nc(Nc3cc4c(cc3F)CCNC4)ncc2C(F)(F)F)c1 [Example 110, 6-fluoro-N-[4-(4-methylsulfonyl-2-thienyl)-5-(trifluoromethyl)pyrimidin-2-yl]-1,2,3,4-tetrahydroisoquinolin-7-amine]	≤ 10
O=C1NCCc2sc(-c3nc(Nc4cc5c(cc4Cl)CNCC5)ncc3C(F)(F)F)cc21 [Example 4, 2-(2-((7-chloro-1,2,3,4-tetrahydroisoquinolin-6-yl)amino)-5-(trifluoromethyl)pyrimidin-4-yl)-6,7-dihydrothieno[3,2-c]pyridin-4(5H)-one]	≤ 10
CCc1cc2c(cc1Nc1ncc(C(F)(F)F)c(-c3cc(C(N)=O)cs3)n1)CCN(C)C2 [Example 13, 5-(2-((7-ethyl-2-methyl-1,2,3,4-tetrahydroisoquinolin-6-yl)amino)-5-(trifluoromethyl)pyrimidin-4-yl)thiophene-3-carboxamide]	≤ 10
CS(=O)(=O)c1csc(-c2nc(Nc3cc4c(cc3Cl)CNCCC4)ncc2C(F)(F)F)c1 [Example 127, 8-chloro-N-(4-(4-(methylsulfonyl)thiophen-2-yl)-5-(trifluoromethyl)pyrimidin-2-yl)-2,3,4,5-tetrahydro-1H-benzo[c]azepin-7-amine]	≤ 10
CCN1CCS(=O)(=O)c2cc(-c3nc(Nc4cc5c(cc4Cl)CNCC5)ncc3C(F)(F)F)sc2C1=O [Example 135, 7-(2-((7-chloro-1,2,3,4-tetrahydroisoquinolin-6-yl)amino)-5-(trifluoromethyl)pyrimidin-4-yl)-4-ethyl-3,4-dihydrothieno[2,3-f][1,4]thiazepin-5(2H)-one 1,1-dioxide]	≤ 10
CS(=O)(=O)c1cc(-c2nc(Nc3cc4c(cc3Cl)CNCC4)ncc2C(F)(F)F)sc1C1CCS(=O)(=O)CC1 [Example 104, 4-(5-(2-((7-chloro-1,2,3,4-tetrahydroisoquinolin-6-yl)amino)-5-(trifluoromethyl)pyrimidin-4-yl)-3-(methylsulfonyl)thiophen-2-yl)tetrahydro-2H-thiopyran 1,1-dioxide]	≤ 10
CC1(C)NC(=O)c2cc(-c3nc(Nc4cc5c(cc4Cl)CNCC5)ncc3C(F)(F)F)sc21 [Example 40, 2-(2-((7-chloro-1,2,3,4-tetrahydroisoquinolin-6-yl)amino)-5-(trifluoromethyl)pyrimidin-4-yl)-6,6-dimethyl-5,6-dihydro-4H-thieno[2,3-c]pyrrol-4-one]	≤ 10

More lines, now with the values ahead:

IC50 [nM]	Structure (SMILES)
≤ 10	CS(=O)(=O)c1cc(-c2nc(Nc3cc4c(cc3Cl)CNCC4)ncc2C(F)(F)F)sc1C1=CCOCC1 [Example 75, 7-chloro-N-(4-(5-(3,6-dihydro-2H-pyran-4-yl)-4-(methylsulfonyl)thiophen-2-yl)-5-(trifluoromethyl)pyrimidin-2-yl)-1,2,3,4-tetrahydroisoquinolin-6-amine]
≤ 10	CN1CCc2cc(Nc3ncc(C(F)(F)F)c(-c4cc5c(s4)C(=O)N(C)CCS5(=O)=O)n3)c(Cl)cc2C1 [Example 116, 7-[2-[(7-chloro-2-methyl-3,4-dihydro-1H-isoquinolin-6-yl)amino]-5-(trifluoromethyl)pyrimidin-4-yl]-4-methyl-1,1-dioxo-2,3-dihydrothieno[2,3-f][1,4]thiazepin-5-one]
≤ 10	CCc1cc2c(cc1Nc1ncc(C(F)(F)F)c(-c3cc(S(C)(=O)=O)cs3)n1)CNC2 [Example 72, 6-ethyl-N-(4-(4-(methylsulfonyl)thiophen-2-yl)-5-(trifluoromethyl)pyrimidin-2-yl)isoindolin-5-amine]
≤ 10	O=S1(=O)CCNCc2sc(-c3nc(Nc4cc5c(cc4Cl)CN(C4CC4)CC5)ncc3C(F)(F)F)cc21 [Example 117, 7-chloro-2-cyclopropyl-N-[4-(1,1-dioxo-2,3,4,5-tetrahydrothieno[2,3-f][1,4]thiazepin-7-yl)-5-(trifluoromethyl)pyrimidin-2-yl]-3,4-dihydro-1H-isoquinolin-6-amine]
≤ 10	CN1CCc2cc(Nc3ncc(C(F)(F)F)c(-c4cc(S(C)(=O)=O)c(C(N)=O)s4)n3)c(Cl)cc2C1 [Example 63, 5-(2-((7-Chloro-2-methyl-1,2,3,4-tetrahydroisoquinolin-6-yl)amino)-5-(trifluoromethyl)pyrimidin-4-yl)-3-(methylsulfonyl)thiophene-2-carboxamide]
≤ 10	CSc1cc2c(cc1Nc1ncc(C(F)(F)F)c(-c3cc4c(s3)CCNC4=O)n1)CCNC2 [Example 35, 2-(2-((7-(Methylthio)-1,2,3,4-tetrahydroisoquinolin-6-yl)amino)-5-(trifluoromethyl)pyrimidin-4-yl)-6,7-dihydrothieno[3,2-c]pyridin-4(5H)-one]
≤ 10	CS(=O)(=O)c1csc(-c2nc(Nc3cc4c(cc3C3CC3)CNCC4)ncc2C(F)(F)F)c1 [Example 132, 7-cyclopropyl-N-(4-(4-(methylsulfonyl)thiophen-2-yl)-5-(trifluoromethyl)pyrimidin-2-yl)-1,2,3,4-tetrahydroisoquinolin-6-amine]
≤ 10	O=C1NCCc2sc(-c3nc(Nc4cc5c(cc4Cl)CNC5)ncc3C(F)(F)F)cc21 [Example 33, 2-(2-((6-Chloroisoindolin-5-yl)amino)-5-(trifluoromethyl)pyrimidin-4-yl)-6,7-dihydrothieno[3,2-c]pyridin-4(5H)-one]
≤ 10	CCc1cc2c(cc1Nc1ncc(C(F)(F)F)c(-c3cc4c(s3)CCNC4=O)n1)CCNC2 [Example 34, 2-(2-((7-ethyl-1,2,3,4-tetrahydroisoquinolin-6-yl)amino)-5-(trifluoromethyl)pyrimidin-4-yl)-6,7-dihydrothieno[3,2-c]pyridin-4(5H)-one]
